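Compound exposure: 48 hours, 5 concentrations, 96-well plates. Abbreviation: GI50, concentration required for 50% inhibition of growth.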 Active and inactive are the calls of the source. No stated cut-off is given here; in the data, active = GI50 up to about 1.1 µM and inactive = higher.
Assays:
Experiment in all cases: inhibition of tumour cell growth, NCI panel, 48 h
[1] = test system: A498
[2] = test system: A549
[3] = test system: CAKI-1
[4] = test system: HCT-116
[5] = test system: HCT-15
[6] = test system: HOP-62
[7] = test system: M14
[8] = test system: NCI-H23
[9] = test system: NCI-H460
[10] = test system: SK-MEL-2
[11] = test system: SNB-75
[12] = test system: SW-620
[13] = test system: U-251
[14] = test system: UACC-62
[15] = test system: UO-31
[16] = test system: SF-268

| SMILES | GI50 [1] | GI50 [2] | GI50 [3] | GI50 [4] | GI50 [5] [µM] | GI50 [6] | GI50 [7] | GI50 [8] | GI50 [9] | GI50 [10] | GI50 [11] | GI50 [12] | GI50 [13] | GI50 [14] | GI50 [15] | GI50 [16] |
| --- | --- | --- | --- | --- | --- | --- | --- | --- | --- | --- | --- | --- | --- | --- | --- | --- |
| CCc1c(OC(C)=O)c2c(NC3OC(COC(C)=O)C(OC(C)=O)C(OC(C)=O)C3OC(C)=O)nc(SC)nc2oc1=O (configuration not stated) | > 100 µM (inactive) | > 100 µM (inactive) | > 100 µM (inactive) | > 100 µM (inactive) | > 100 | > 100 µM (inactive) | > 100 µM (inactive) | > 100 µM (inactive) | > 100 µM (inactive) | > 100 µM (inactive) | > 100 µM (inactive) | > 100 µM (inactive) | > 100 µM (inactive) | > 100 µM (inactive) | > 100 µM (inactive) |  |
| S=C1CNC(=S)CN1 | > 100 µM (inactive) | > 100 µM (inactive) | > 100 µM (inactive) | > 100 µM (inactive) | > 100 | > 100 µM (inactive) | > 100 µM (inactive) |  | > 100 µM (inactive) | > 100 µM (inactive) | > 100 µM (inactive) | > 100 µM (inactive) | > 100 µM (inactive) | > 100 µM (inactive) | > 100 µM (inactive) | > 100 µM (inactive) |
| CNC(=O)C1CCc2nnc(-c3ccccc3)n21 (configuration not stated) | > 100 µM (inactive) | > 100 µM (inactive) | > 100 µM (inactive) | > 100 µM (inactive) | > 100 | > 100 µM (inactive) | > 100 µM (inactive) |  | > 100 µM (inactive) | > 100 µM (inactive) | > 100 µM (inactive) | > 100 µM (inactive) | > 100 µM (inactive) | > 100 µM (inactive) | > 100 µM (inactive) | > 100 µM (inactive) |
| CC(C)=CC(=O)Cc1nc2ccc([N+](=O)[O-])cc2[nH]c1=O | > 100 µM (inactive) | > 100 µM (inactive) | > 100 µM (inactive) | > 100 µM (inactive) | > 100 | > 100 µM (inactive) | > 100 µM (inactive) | > 100 µM (inactive) | > 100 µM (inactive) | > 100 µM (inactive) | 18.5 µM (inactive) | > 100 µM (inactive) |  | > 100 µM (inactive) | 63.1 µM (inactive) | > 100 µM (inactive) |
| O=[N+]([O-])c1ccc(Cl)c(C2SCc3nc4ccccc4n32)c1 (configuration not stated) | 32.3 µM (inactive) | 44.9 µM (inactive) | 20.1 µM (inactive) | 31.6 µM (inactive) |  |  |  | 33.2 µM (inactive) | 28.7 µM (inactive) | 50.9 µM (inactive) | 24.9 µM (inactive) | 35 µM (inactive) | 41.8 µM (inactive) | 39.9 µM (inactive) | 17.3 µM (inactive) | 29.8 µM (inactive) |
| CN(C)CCn1cnc2ncccc2c1=O |  | > 100 µM (inactive) | > 100 µM (inactive) | > 100 µM (inactive) |  | > 100 µM (inactive) | > 100 µM (inactive) | > 100 µM (inactive) | > 100 µM (inactive) | > 100 µM (inactive) | > 100 µM (inactive) | > 100 µM (inactive) | > 100 µM (inactive) | > 100 µM (inactive) | > 100 µM (inactive) | > 100 µM (inactive) |
| O=C(NC1CCCC1=O)c1ccccc1 (configuration not stated) | 13.7 µM (inactive) | > 100 µM (inactive) | > 100 µM (inactive) | > 100 µM (inactive) |  | > 100 µM (inactive) | > 100 µM (inactive) | > 100 µM (inactive) | > 100 µM (inactive) | > 100 µM (inactive) | 31.5 µM (inactive) | > 100 µM (inactive) | > 100 µM (inactive) | > 100 µM (inactive) | > 100 µM (inactive) | > 100 µM (inactive) |
| CC(=O)Nc1ccc(/C=C/C(=O)c2sc(-c3nc(C)c(C(=O)/C=C/c4ccc(NC(C)=O)cc4)s3)nc2C)cc1 |  | > 100 µM (inactive) | > 100 µM (inactive) | > 100 µM (inactive) | > 100 | > 100 µM (inactive) | > 100 µM (inactive) | > 100 µM (inactive) | > 100 µM (inactive) | > 100 µM (inactive) |  | > 100 µM (inactive) | > 100 µM (inactive) | > 100 µM (inactive) | 97.5 µM (inactive) | > 10 µM (inactive) |
| Brc1ccc(-c2cc3c(cc2C2SCCS2)OCO3)cc1 | 19 µM (inactive) | 18.2 µM (inactive) |  | 30.1 µM (inactive) | 29.7 | 31.4 µM (inactive) | 41.6 µM (inactive) | 39.2 µM (inactive) | 29.6 µM (inactive) | 28.8 µM (inactive) | 1.25 µM (inactive) | 25.6 µM (inactive) | 29.7 µM (inactive) |  | 18.1 µM (inactive) | 26.9 µM (inactive) |
| O=C(CC1(O)C(=O)Nc2ccccc21)c1ccc(F)cc1 (configuration not stated) | > 100 µM (inactive) | > 100 µM (inactive) | > 100 µM (inactive) | > 100 µM (inactive) | > 100 |  | > 100 µM (inactive) | > 100 µM (inactive) | > 100 µM (inactive) | > 100 µM (inactive) | > 100 µM (inactive) | > 100 µM (inactive) |  | > 100 µM (inactive) | > 100 µM (inactive) | > 100 µM (inactive) |
| O=C1NC(=O)C2C1C1C=C3c4ccccc4N(c4ccccc4)C32[C@H]2C(=O)NC(=O)[C@@H]12 (some centres not stated) | > 100 µM (inactive) | > 100 µM (inactive) | > 100 µM (inactive) | > 100 µM (inactive) | > 100 | > 100 µM (inactive) | > 100 µM (inactive) |  | > 100 µM (inactive) | > 100 µM (inactive) | > 100 µM (inactive) | > 100 µM (inactive) |  | > 100 µM (inactive) | > 100 µM (inactive) | > 100 µM (inactive) |
| CC(c1ccc2c(c1)CCC1C2CC2OC23CC=CC(=O)[C@]13C)C1C[C@]2(C)O[C@]2(C)[C@H](O)O1 (some centres not stated) |  | 16.1 µM (inactive) | 7.64 µM (inactive) | 0.256 µM (active) | 82.4 | 0.791 µM (active) | 10.7 µM (inactive) | 0.219 µM (active) | 25.2 µM (inactive) | 52.2 µM (inactive) | 58.9 µM (inactive) | 25.3 µM (inactive) | 3.61 µM (inactive) | 91.2 µM (inactive) | 10.5 µM (inactive) | 63.4 µM (inactive) |
| COc1ccc(/C=C2\CCc3ccccc3C2=O)cc1OC | 46.6 µM (inactive) | 38.2 µM (inactive) | 31.6 µM (inactive) | 17.9 µM (inactive) | 17.2 | 76.7 µM (inactive) | 22.4 µM (inactive) | 19.6 µM (inactive) | 34.8 µM (inactive) | 31.1 µM (inactive) | 21.4 µM (inactive) | 28.4 µM (inactive) | 31 µM (inactive) | 16 µM (inactive) | 29.2 µM (inactive) | 20.8 µM (inactive) |
| Nc1nc(=O)n([C@@H]2CC[C@H](CO)O2)cc1F |  | > 100 µM (inactive) | > 100 µM (inactive) |  | > 100 | > 100 µM (inactive) | > 100 µM (inactive) | > 100 µM (inactive) | > 100 µM (inactive) | > 100 µM (inactive) | > 100 µM (inactive) | > 100 µM (inactive) | > 100 µM (inactive) |  | > 100 µM (inactive) | > 100 µM (inactive) |
